The text below walks through data of patent US9487494B2, “Cyclic hydrocarbon compounds for the treatment of diseases” (LEO PHARMA A/S, priority 2007, dated 2016).

Data set [1] has as its system rat 5/6 nephrectomy model. In words: In vivo test using the 5/6 nephrectomy model in rats (secondary hyperparathyroidism). The note with it: 336 h, oral once daily for two weeks, 5/6 nephrectomized rats, read-out: ED50, PTH lowering effect. The text has this:
The lowering effect of different compounds on serum PTH was examined in vivo in the rat 5/6 nephrectomy model which is a widely accepted animal model of secondary hyperparathyroidism.
Two-third of the rats' (Sprague Dawley, at least 8 weeks old) left kidney was surgically removed followed by removal of the right kidney one week later.
After disease initiation, blood was obtained by retro-orbital bleeding and urine was collected using metabolic cages. Serum PTH, calcium, phosphorus, albumin, creatinine, and BUN as well as urinary creatinine and albumin were measured. Rats were then stratified into different treatment groups (9-12 rats/group) based on the results obtained. One group of normal rats without surgery served as control (“control”) and one group of nephrectomized rats treated with vehicle (1% Methylcellulose) was used as another control (“5/6 NEPX”). All other groups were treated orally with test compound at various doses once daily for two weeks and the above mentioned parameters were monitored weekly.

In data set [2] the test system is normal male Sprague Dawley rats. The data set is described as follows: In vivo test in normal rats (serum PTH and calcium). More on the design: species or system rat. The note with it: for PTH suppression / Suppression of Ca^2+: 1 mg/kg p.o., single dose, 2 hours after dosing, compared to vehicle-treated animals; for ED50: Rattus norvegicus, 2 h, oral single doses, blood two hours thereafter, normal rats, read-out: ED50 with respect to PTH suppression. As to the method: Various compounds were administered to normal male Sprague Dawley rats in order to examine the pharmacological effect on serum levels of total calcium and parathyroid hormone (PTH). The experiments were performed by orally administering a single dose of the respective compounds as compared to vehicle-treated animals or animals treated with the competitor compound Cinacalcet.
As a standard, a group of six animals were treated orally with 1 mg/kg of compound as a 1% methylcellulose suspension and two hours thereafter, blood was obtained by retro-orbital bleeding under anaesthesia and the serum calcium and PTH levels were measured.
In some instances, rats were treated orally with various doses of a given compound in 1% methylcellulose (six rats/dose) and blood was obtained by retro-orbital bleeding two hours thereafter. Using the software GraphPad Prism® 5, ED50 values for Cinacalcet, Compound 1056, Compound 1186, and Compound 1190 with respect to PTH suppression were calculated to be 0.9 mg/kg, 0.1 mg/kg, 0.04 mg/kg, and 0.002 mg/kg, respectively.
For some compounds, rats were bled at several time-points after oral administration (six rats/time point), and suppression of serum PTH levels was observed over time.

For data set [3], the target named is recombinant human P450 2D6 (Homo sapiens (Human), UniProt P10635). The data set is described as follows: Screening for P450 2D6 inhibition (fluorescent AMMC substrate). The data set is classed as in vitro ADME. As to conditions: recombinant human P450 CYP2D6, AMMC substrate, 30 min. As to the method: The assay rapidly screen for potential inhibitors of human P450 2D6 catalytic activity, by using recombinant human P450 2D6. The IC50 determination is performed in duplicate at eight concentrations.
Chain of recombinant human P450 2D6 (P10635 whole entry): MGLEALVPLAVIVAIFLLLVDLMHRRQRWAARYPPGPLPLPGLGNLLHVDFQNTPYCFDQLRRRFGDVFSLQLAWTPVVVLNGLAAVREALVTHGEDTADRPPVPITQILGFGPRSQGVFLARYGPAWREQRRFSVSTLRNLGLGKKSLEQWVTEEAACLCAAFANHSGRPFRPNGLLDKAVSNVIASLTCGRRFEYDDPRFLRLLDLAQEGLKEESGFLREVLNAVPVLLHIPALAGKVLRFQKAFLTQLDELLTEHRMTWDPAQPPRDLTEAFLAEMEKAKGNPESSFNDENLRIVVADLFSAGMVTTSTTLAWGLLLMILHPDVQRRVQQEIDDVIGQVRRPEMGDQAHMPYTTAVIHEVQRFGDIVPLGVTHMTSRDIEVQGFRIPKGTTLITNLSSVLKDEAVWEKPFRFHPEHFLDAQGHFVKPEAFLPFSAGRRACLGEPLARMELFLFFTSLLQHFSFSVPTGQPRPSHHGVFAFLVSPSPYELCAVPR
Incubations were conducted in 96 well microtiter plates based on a method described by BD Biosciences. To the first well in each row, a NADPH regenerating system and test compound was added. In the second well and all remaining wells, NADPH regenerating system and acetonitrile (final concentration of 2%) was added. The final assay concentration of the NADPH regenerating system was 8.2 μM NADP^+, 0.41 mM glucose-6-phosphate, 0.41 mM magnesium chloride hexahydrate and 0.4 U/ml glucose-6-phosphate dehydrogenase and 0.01 mg/mL control insect cell membrane protein. The test compound solution was serially diluted 1:3 through the eighth wells.
The final concentration of the test compounds were in the range 100 μM to 45.7 nM in the eight rows. Wells 9 and 10 contained no test compound (only NADPH regenerating system and enzyme/substrate mix) and wells 11 and 12 were used as controls for background fluorescence (enzyme and substrate were added after the reaction was terminated). The plate was then pre-incubated at 37° C. for 10 min, and the reaction was initiated by the addition of pre-warmed enzyme/substrate mix. The assay concentration of the enzyme/substrate mix was 100 mM potassium phosphate, pH 7.4, 1.5 pmol recombinant human P450 CYP2D6 and 1.5 μM of the fluorescent substrate 3-[2-(N,N diethyl-N-methylamino)ethyl]-7-methoxy-4-methylcounnarin (AMMC). The assay was conducted in duplicate in a final volume of 200 μL per well. Reactions were terminated after 30 min by addition of a 4:1, acetonitrile:0.5 M Tris base solution. Quinidine was used as positive control, 0.5 μM as highest concentration. Fluorescence per well was measured using a fluorescence plate reader (excitation: 390 nm, emission: 460 nm). The IC50 values were calculated.

For `C[C@@H](NCCCc1cccc(C(F)(F)F)c1)c1cccc2ccccc12` [Cinacalcet, reference compound], the ED50 (commonly the dose at which the effect has come halfway, by size or by number of responders) in data set [1] is roughly 20 mg/kg. In data set [2], the PTH suppression came to 48%, the “Suppression of Ca^2+” value is listed as 5% and the ED50 worked out at 0.9 mg/kg. Also, in data set [3], the IC50 (commonly the concentration at which inhibition is half-maximal) was 0.05 µM.
The matching figures for `C[C@@H](NC1CCCC(c2ccc(C(=O)O)cc2)C1)c1cccc2ccccc12` (stereo partly drawn) [Compound 1056, 4-[3-((R)-1-naphthalen-1-yl-ethylamino)-cyclohexyl]-benzoic acid]: roughly 2 mg/kg, 85%, 1%, 0.1 mg/kg and 10 µM.
Consider `C[C@@H](N[C@H]1CCC[C@H](c2ccc(C(=O)NCC(=O)O)cc2)C1)c1cccc2ccccc12` [Compound 1115, {4-[(1S,3S)-3-((R)-1-Naphthalen-1-yl-ethylamino)-cyclohexyl]-benzoylamino}-acetic acid], for which, in data set [2], the PTH suppression came out at 50% and the “Suppression of Ca^2+” value amounted to 3%. Further, the IC50 in data set [3] worked out at 13 µM.
For `C[C@@H](N[C@H]1CCC[C@H](c2ccc(C(=O)NCCC(=O)O)cc2)C1)c1cccc2ccccc12.Cl` [Compound 1136, 3-{4-[(1S,3S)-3-((R)-1-Naphthalen-1-yl-ethylamino)-cyclohexyl]-benzoylamino}-propionic acid hydrochloride], in that order: 61%, 7% and 10 µM.
Regarding `C[C@@H](N[C@H]1CCC[C@H](c2ccc(C(=O)N3CC(C(=O)O)C3)cc2)C1)c1cccc2ccccc12` [Compound 1142, 1-{4-[(1S,3S)-3-((R)-1-Naphthalen-1-yl-ethylamino)-cyclohexyl]-benzoyl}-azetidine-3-carboxylic acid], the IC50 in data set [3] was determined as 25 µM.
For the compound `C[C@@H](N[C@H]1CCC[C@H](c2ccc(C(=O)N3CCC(C(=O)O)CC3)cc2)C1)c1cccc2ccccc12` [Compound 1146, 1-{4-[(1S,3S)-3-((R)-1-Naphthalen-1-yl-ethylamino)-cyclohexyl]-benzoyl}-piperidine-4-carboxylic acid], in data set [2], the PTH suppression turned out to be 84% and the “Suppression of Ca^2+” value was 0%. Besides, the IC50 in data set [3] came out at 16 µM.
Take `C[C@@H](N[C@H]1CC[C@@H](c2ccc(OCC(=O)O)cc2)C1)c1cccc2ccccc12` [Compound 1186, {4-[(1R,3S)-3-((R)-1-Naphthalen-1-yl-ethylamino)-cyclopentyl]-phenoxy}-acetic acid]: the ED50 in data set [1] was roughly 0.3 mg/kg. In addition, in data set [2], the PTH suppression was found to be 98%, the “Suppression of Ca^2+” value was found to be 6% and the median effective dose (ED50) was found to be 0.04 mg/kg. Besides, in data set [3], the IC50 turned out to be 50 µM.
Turning to `C[C@@H](NC1CCC(c2ccc(OCC(=O)O)cc2)C1)c1cccc2ccccc12` (stereo partly drawn) [Compound 1188, {4-[3-((R)-1-Naphthalen-1-yl-ethylamino)-cyclopentyl]-phenoxy}-acetic acid], in data set [2], the PTH suppression is given as 97% and the “Suppression of Ca^2+” value was 12%.
With `C[C@@H](N[C@H]1CC[C@H](c2ccc(CCC(=O)O)cc2)C1)c1cccc2ccccc12.Cl` [Compound 1190, 3-{4-[(1S,3S)-3-((R)-1-Naphthalen-1-yl-ethylamino)-cyclopentyl]-phenyl}-propionic acid hydrochloride], the ED50 in data set [1] was roughly 0.01 mg/kg. Also, in data set [2], the PTH suppression was found to be 93%, the “Suppression of Ca^2+” value is reported as 18.5% and the ED50 amounted to 0.002 mg/kg. Besides, in data set [3], the IC50 turned out to be 79 µM.
With `C[C@@H](NC1CC[C@H](c2ccc(C(=O)O)cc2)C1)c1cccc2ccccc12` (stereo partly drawn) [Compound 1338, 4-[3-((R)-1-Naphthalen-1-yl-ethylamino)-cyclopentyl]-benzoic acid], in data set [2], the PTH suppression is given as 85% and the “Suppression of Ca^2+” value was 29%. Also, the IC50 in data set [3] was 100 µM.
